# Tests used:
# Format in all cases: cell-based
# [1] = tested on: Peptostrep asaccharolyticus; assay: Anaerobe inhibition assay; details: 2 strains
# [2] = tested on: Lactobacilli (L. jensii, L. gasseri, L. acidophilus, L. salivarius); assay: Lactobacillus Steers time-kill (TK) assay, all strains
# [3] = tested on: Peptrostrep. magnus; assay: Anaerobe inhibition assay; details: 2 strains, read-out: Minimum Inhibitory Concentrations (MICs)
# [4] = tested on: HIV; assay: Cell-free inactivation assay; details: virus incubated with product for 2 minutes
# Description: Cell-free inactivation assay: Virus was incubated with product for 2 minutes, a series of 10-fold dilutions were made, each dilution was added to the host cells and viral infectivity was measured.
compound,measurement,setting,value
"Cc1cc(C2CCCCC2)n(O)c(=O)c1.NCCO [CO, 6-Cyclohexyl-1-hydroxy-4-methyl-2-(1H)-pyridone ethanolamine salt]",Minimum Inhibitory Concentrations (MICs),[1],80 µg/mL
same,MIC,[1]; read-out: Minimum Inhibitory Concentrations (MICs),40 µg/mL
same,effect on lactobacilli (summary in words),[2],inhibits the growth of lactobacilli but does not kill them
same,MIC,[3],40 µg/mL
same,log reduction (viral infectivity),[4]; At 0.09%,At 0.09%: ≧2.0 log
same,log reduction (viral infectivity),[4]; At 0.3%,At 0.3%: ≧2.7 log

# Reference: US20050037033A1, “Microbicidal compositions and methods and use” (priority 2003, published 2005)
